Experimental findings from patent EP0536402A1, “PIPERIDINE DERIVATIVE” (NIPPON SHINYAKU COMPANY, LIMITED, priority 1990, dated 1992) are described below.

Structures can show the parent of a compound that is named as a salt.

In this test the target is β -galactosidase. Description: β-galactosidase inhibitory activity (colorimetric, O-nitrophenyl-β-D-galactopyranose substrate). It counts as biochemical, Aspergillus sp. The settings on record: acetate buffer pH 5.0, 37°C, 15 minutes. The method, then: The assay of this activity was carried out by permitting β -galactosidase to act on the substrate O-nitrophenyl-β -D-galactopyranose and quantitating O-nitrophenol, which was released on hydrolysis, colorimetrically. Thus, a mixture of 0.9 ml of 100 mM acetate buffer (pH 5.0), 0.1 ml of a solution of the test substance (dissolved in 100 mM acetate buffer at pH 5.0) and 0.5 ml of a 20 mM substrate solution was previously warmed at 37°C for […] and, then, dissolved in 10 mM acetate buffer at pH 5.0. Then, 0.5 ml of a solution of β -galactosidase was added and the reaction was conducted at 37°C for 15 minutes. The absorbance (A) at 420 nm was then measured. The absorbance (B) of a reaction mixture not containing the test substance was also measured and using the equation of % inhibition = (B - A)/B x 100 [formula] , the concentration of the test substance causing 50% inhibition of β -galactosidase activity (IC₅₀) was determined. The β -galactosidase derived from Aspergillus sp. was used. It is clear that the compound of the present invention has high β -galactosidase inhibitory activity.

As for `OC[C@H]1NC[C@H](O)[C@@H](O)[C@H]1O` [1-deoxygalactostatin hydrochloride, reference compound], the IC₅₀ reads like this: (Test Example 1) 451 ng/mL; (Test Example 2) 440 ng/mL. Turning to `CN1C[C@H](O)[C@@H](O)[C@@H](O)[C@H]1CO` [Example 1, N-methyl-1-deoxygalactostatin], the IC₅₀ (Test Example 1) came to 15 ng/mL. The compound `CCN1C[C@H](O)[C@@H](O)[C@@H](O)[C@H]1CO` [Example 2, N-ethyl-1-deoxygalactostatin] registered an IC₅₀ (Test Example 1) of 82 ng/mL. On the same count and under the same terms, to `CCCN1C[C@H](O)[C@@H](O)[C@@H](O)[C@H]1CO` [Example 3, N-n-propyl-1-deoxygalactostatin] belongs 44 ng/mL; to `CC(C)CN1C[C@H](O)[C@@H](O)[C@@H](O)[C@H]1CO` [Example 4, N-isobutyl-1-deoxygalactostatin], 40 ng/mL; to `CCCCCCCN1C[C@H](O)[C@@H](O)[C@@H](O)[C@H]1CO` [Example 5, N-n-heptyl-1-deoxygalacto-statin], 32 ng/mL.

In the case of `CCCCCCCCCCCCN1C[C@H](O)[C@@H](O)[C@@H](O)[C@H]1CO` [Example 6, N-n-dodecyl-1-deoxygalactostatin], the IC₅₀ (Test Example 1) turned out to be 23 ng/mL.

In turn, `OC[C@@H]1[C@H](O)[C@H](O)[C@@H](O)CN1CCCc1ccccc1` [Example 7, N-(3-phenylpropyl)-1-deoxygalactostatin] came in with an IC₅₀ (Test Example 1) of 88 ng/mL.

As for `OC[C@@H]1[C@H](O)[C@H](O)[C@@H](O)CN1Cc1ccc(Cl)cc1` [Example 8, N-p-chlorobenzyl-1-deoxygalactostatin], where the note is “Test Example 1”, the IC₅₀ was found to be 180 ng/mL. Take `C=CCN1C[C@H](O)[C@@H](O)[C@@H](O)[C@H]1CO` [Example 9, N-allyl-1-deoxygalactostatin]: where the note is “Test Example 1”, the IC₅₀ came out at 187 ng/mL. Same read-out and setting: the same measure for `OC[C@@H]1[C@H](O)[C@H](O)[C@@H](O)CN1CC=Cc1ccccc1` [Example 10, N-cinnamyl-1-deoxygalactostatin]: 175 ng/mL.

In the case of `COCCN1C[C@H](O)[C@@H](O)[C@@H](O)[C@H]1CO` [Example 11, N-methoxyethyl-1-deoxygalactostatin], the IC₅₀ (Test Example 2) stood at 59 ng/mL. Same read-out and setting: the same measure for `OC[C@@H]1[C@H](O)[C@H](O)[C@@H](O)CN1Cc1ccc(-c2ccccc2)cc1` [Example 12, N-(p-phenylbenzyl)-1-deoxygalactostatin]: 166 ng/mL. Turning to `CCCCCN1C[C@H](O)[C@@H](O)[C@@H](O)[C@H]1CO` [Example 13, N-n-pentylnyl-1-deoxygalactostatin], the IC₅₀ (Test Example 2) was 113 ng/mL.

`COc1ccc(CN2C[C@H](O)[C@@H](O)[C@@H](O)[C@H]2CO)cc1` [Example 14, N-p-methoxybenzyl-1-deoxygalactostatin] showed an IC₅₀ (Test Example 2) of 391 ng/mL. In turn, `CSc1ccc(CN2C[C@H](O)[C@@H](O)[C@@H](O)[C@H]2CO)cc1` [Example 15, N-p-methylthiobenzyl-1-deoxygalactostatin] came in with an IC₅₀ (Test Example 2) of 393 ng/mL.

In turn, `OC[C@@H]1[C@H](O)[C@H](O)[C@@H](O)CN1CCc1ccccc1` [Example 16, N-phenylethyl-1-deoxygalactostatin] showed an IC₅₀ (Test Example 2) of 21 ng/mL.

The compound `OC[C@@H](O)[C@H](O)[C@H](O)[C@@H](O)CN1C[C@H](O)[C@@H](O)[C@@H](O)[C@H]1CO` [Example 17, N-(1'-deoxygalactitoyl)-1-deoxygalactostatin] showed an IC₅₀ (Test Example 2) of 49 ng/mL.

The compound `CC(=O)Nc1ccc(CN2C[C@H](O)[C@@H](O)[C@@H](O)[C@H]2CO)cc1` [Example 18, N-(p-acetamidobenzyl)-1-deoxygalactostatin] showed an IC₅₀ (Test Example 2) of 340 ng/mL. The same measure, in the same setting: to `OC[C@@H]1[C@H](O)[C@H](O)[C@@H](O)CN1CC1CCCCC1` [Example 20, N-cyclohexylmethyl-1-deoxygalactostatin] belongs 37 ng/mL; to `CSCCCN1C[C@H](O)[C@@H](O)[C@@H](O)[C@H]1CO` [Example 21, N-(3'-methylthiopropyl)-1-deoxygalactostatin], 49 ng/mL.

`COc1ccc(CN2C[C@H](O)[C@@H](O)[C@@H](O)[C@H]2CO)cc1C` [Example 22, N-(3'-methyl-4'-methoxybenzyl)-1-deoxygalactostatin] displayed an IC₅₀ (Test Example 2) of 359 ng/mL.

`CCCCN1C[C@H](O)[C@@H](O)[C@@H](O)[C@H]1CO` [Example 23, N-n-butyl-1-deoxygalactostatin]: where the note is “Test Example 2”, the IC₅₀ is 154 ng/mL.

In turn, `O=C(O)CCCN1C[C@H](O)[C@@H](O)[C@@H](O)[C@H]1CO` [Example 24, N-(3-carboxypropyl)-1-deoxygalactostatin] gave an IC₅₀ (Test Example 2) of 351 ng/mL.
